The record followed here is patent EP0791004B1, “ACYLATED BENZYLGLYCOSIDES AS INHIBITORS OF SMOOTH MUSCLE CELL PROLIFERATION” (AMERICAN HOME PRODUCTS CORPORATION, priority 1994, dated 1996).

Data set [1] relates to Porcine Smooth Muscle Cell. The experiment in a line: Cytotoxicity, MTT assay. To be noted: up to 100 µg/mL; 24 h, medium without serum. In kind it is cell-based. As to the method:
Briefly, cells were again grown in 24 well plates to 70 - 80 % confluency and, as before, serum deprived for 24 - 48 h prior to initiation of the experimental protocol. To insure that the MTT assay monitored toxicity rather than proliferation, cells were incubated with 100 µg/mL of drug in fresh medium without serum for 24 h at 37 °C in a humidified CO2 incubator. Upon completion of the compound treatment, MTT (3-[4,5-dimethylthiazol-2-yl]-2,5-diphenyltetrazolium bromide) indicator dye was added for 4 h at 37 °C. Cells were then lysed and aliquots from each well were transferred to a 96 well plate for analysis. Absorbance at 570 nm wavelength with a reference wavelength of 630 nm was recorded using an ELISA plate reader. Results were determined as percent viable using no drug (100% viable) and pre-solubilization (0% viable) standards.

For data set [2], the system named is normal human plasma. Nature of the data set: Anticoagulant activity, partial thromboplastin time (APTT) assay. In kind it is biochemical. To be noted: human citrated plasma. The method, then: The anticlotting activity of the compounds of this invention was evaluated in a partial thromboplastin time (APTT) assay using normal human plasma collected from 5 donors according to the procedure of Fenichel et. al. (Clin. Chem. 1964, 10, 69). A BBL Fibrometer automatic precision coagulation timer utilizing a 0.3 mL probe was employed. An Ellagic acid activated partial thromboplastin was used for these experiments. This reagent was added to human citrated plasma equilibrated at 37 °C in a plastic well in the clot timer. Calcium at 37 °C was added, the clot timer was started and the time for fibrin clot formation (in seconds) was recorded. The effect of the compounds, added to plasma, over a concentration of 12.5 - 200 µg/mL was determined. […] An unfractionated heparin comparator was used over the concentration range of 1.25 - 10 µg/mL. Clotting tests at all concentrations were run in triplicate. Analysis of variance for a randomized block design was used to determine the significance of differences observed in the clotting times. […]

In the case of `CC(=O)OC[C@H]1O[C@H](O[C@H]2[C@H](OC(C)=O)[C@@H](OC(C)=O)[C@H](OCc3ccc(C)c(NS(=O)(=O)c4ccc(NS(C)(=O)=O)cc4)c3)O[C@@H]2COC(C)=O)[C@H](OC(C)=O)[C@@H](OC(C)=O)[C@@H]1OC(C)=O` [Example 17, N-[5-(Hepta-O-acetyl-β-D-maltosyloxymethyl)-2-methylphenyl]-4-(methanesulfonylamino)benzenesulfonamide], in data set [1], the “toxicity (MTT, percent viable)” value was “no toxicity”. In data set [2], the “anticoagulant activity (APTT assay)” value is given as “no anticoagulant activity”.
In the same order, the values of `CCCCC(=O)Nc1cc(CO[C@@H]2O[C@H](COC(C)=O)[C@@H](O[C@H]3O[C@H](COC(C)=O)[C@@H](OC(C)=O)[C@H](OC(C)=O)[C@H]3OC(C)=O)[C@H](OC(C)=O)[C@H]2OC(C)=O)ccc1C` [Example 12, Pentanoic Acid N-[5-(Hepta-O-acetyl-β-D-maltosyloxymethyl)-2-methylphenyl]amide] are “no toxicity” and “no anticoagulant activity”.
For `CCC(=O)Nc1cc(CO[C@@H]2O[C@H](COC(C)=O)[C@@H](O[C@H]3O[C@H](COC(C)=O)[C@@H](OC(C)=O)[C@H](OC(C)=O)[C@H]3OC(C)=O)[C@H](OC(C)=O)[C@H]2OC(C)=O)ccc1C` [Example 11, N-[5-(Hepta-O-acetyl-β-D-maltosyloxymethyl)-2-methylphenyl]propionamide], in data set [1], the “toxicity (MTT, percent viable)” value is recorded as “no toxicity”. Further, the “anticoagulant activity (APTT assay)” value in data set [2] is reported as “no anticoagulant activity”.
